Experimental data reported in patent US20060251597A1, “ANTI-ODOR COMPOSITIONS AND THERAPEUTIC USE” (priority 2005, published 2006).
Structures can show the parent of a compound that is named as a salt. *1 amine or outer side, *2 acyl side, *3 side chain or, on linkers, in order; H or OH if unused. Where a SMILES comes first, the peptide text is derived from it. [ ]: non-standard residue; d: D form. γGlu = O=C(O)[C@H](CCC(=O)[*:2])N[*:1]

Legend:
[1] = anti-odor test, panel by sniffing: N-acetyl-L-cysteine dissolved in a single solvent or liquid ingredient (anhydrous composition); details: for anti-odor effect: 10% N-acetyl-L-cysteine and 90% solvent or liquid ingredient; for suppression of the malodor, judged by panel: 10% N-acetyl-L-cysteine and 90% solvent
Procedure: An anti-odor test was carried out in an anhydrous solvent according to the following example. In a series of test tubes, 4.5 ml of a solvent was added to a test tube such that each test tube comprised a single solvent. The solvents added to the test tubes included water, ethanol, acetone, n-propanol, isopropyl alcohol, propylene glycol, butylenes glycol, benzyl alcohol, ethoxydiglycol, 2-ethyl-1,3-hexanediol. N-Acetyl-L-cysteine (MW 163) 0.5 g was then added and dissolved in each solvent. The test tubes were warmed slightly to enhance dissolution of N-acetyl-L-cysteine crystals. Each test tube contained 10% N-acetyl-L-cysteine and 90% solvent.
An anti-odor test was carried out in an anhydrous composition according to the following example. In a series of test tubes, 4.5 ml of a liquid ingredient was added to a test tube such that each test tube comprised a single liquid ingredient. The liquid ingredients added to a test tube included ethyl glycolate, ethyl-L-lactate, diethyl tartrate, triethyl citrate, tripropyl citrate, ethyl-DL-mandelate, benzyl N-acetyl-prolinate, ethyl N-acetyl-prolinate, propyl N-acetyl-prolinate. N-Acetyl-L-cysteine (MW 163) 0.5 g was then added and dissolved in each liquid ingredient. The test tubes were warmed slightly to enhance dissolution of N-acetyl-L-cysteine crystals. Each test tube contained 10% N-acetyl-L-cysteine and 90% liquid ingredient. The panel judged the anti-odor effect in each test tube.

[2] = panel sniff tests of solvents, ingredients and amines against thiol malodor (general statements); details: solvent or ingredient, based on the panel tests
Procedure: Initially, a malodor compound such as about 5% by weight was prepared in water solution or in oil-in-water emulsion. A sulfone or organic amine of the present embodiments was added at various concentrations for example, ranging from about 2%, 1%, 0.5% and 0.1% to the formulations containing the malodor substance. The composition containing the malodor substance without a sulfone or organic amine was used as the control.

[3] = anti-odor test, panel by sniffing: thiol or similar malodor compound in anhydrous composition
Procedure: In the same manner, the degree of reducing the presence or preventing the production of malodor generated by a thiol or similar malodor compounds in an anhydrous composition containing a solvent or ingredient of the present embodiments was judged by three-member panel through olfactory sensor by sniffing as (a) no difference from control, (b) slight malodor, (c) trace malodor, and (d) no malodor. In an initial test, a solvent or liquid ingredient of the present embodiments at 4.5 ml was added to a test tube, and a thiol or similar malodor compounds 0.5 g was added to make 10% thiol or similar malodor compounds in the solution. The control solution was prepared by dissolving a thiol or similar malodor compounds 0.5 g in water 4.5 ml to make 10% aqueous solution. The above test solutions including the control solutions were judged by the panel for the anti-odor effect and the degree of reducing the presence or preventing the production of malodor was recorded in the same way as (a) no effect (no difference from control), (b) slight malodor (50% effective), (c) trace malodor (90% effective), and (d) no malodor (completely effective).

[4] = 10% malodor compound in anhydrous solution of isopropyl alcohol 50 parts, diethyl tartarate 25 parts, triethyl citrate 25 parts v/v
[5] = 2% malodor compound in anhydrous solution of isopropyl alcohol 50 parts, diethyl tartarate 25 parts, triethyl citrate 25 parts v/v

| Compound | anti-odor effect [1] [%] | prevention of malodor produced by a thiol or similar malodor compounds [2] | also measured |
| --- | --- | --- | --- |
| CCOC(=O)C(O)c1ccccc1 (racemic) [ethyl-DL-mandelate] | 100 | – | – |
| CCCC(O)C(CC)CO (centres unmarked) [2-ethyl-1,3-hexanediol] | 100 | effectively prevent malodor | – |
| CCOC(=O)CNC(=O)[C@H](CS)NC(=O)CC[C@H](N)C(=O)OCC [L-Glutathione diethyl ester] | – | – | malodor as judged by panel [3, 4]: did not have any malodor |
| CCOC(=O)[C@H](CSC(C)=O)NC(C)=O [N,S-Diacetyl-L-cysteine ethyl ester] | – | – | malodor as judged by panel [3, 4]: did not have any malodor |
| COC(=O)[C@H](CSC(C)=O)NC(C)=O [N,S-Diacetyl-L-cysteine methyl ester] | – | – | malodor as judged by panel [3, 4]: did not have any malodor |
| CCOC(=O)CNC(=O)[C@H](CS)NC(=O)CC[C@H](NC(C)=O)C(=O)OCC [N-Acetyl-L-glutathione diethyl ester] | – | – | malodor as judged by panel [3, 4]: did not have any malodor; malodor as judged by panel ([3]; 10% malodor compound in diethyl tartarate, anhydrous): did not have any malodor |
| CC(=O)N[C@@H](CCC(=O)N[C@@H](CS)C(=O)NCC(=O)O)C(=O)O [N-Acetyl-L-glutathione] (Ac-[γGlu]-Cys-Gly-OH) | – | – | malodor as judged by panel [3, 5]: did not have any malodor |
| CCC(=O)N[C@@H](CS)C(=O)O [N-Propanoyl-L-cysteine] | – | – | malodor as judged by panel [3, 5]: did not have any malodor |
| CC(C)=O [acetone] | 100 | – | – |
| CC(=O)N1CCC[C@H]1C(=O)OCc1ccccc1 [benzyl N-acetyl-prolinate] | 100 | effectively prevent malodor | – |
| OCc1ccccc1 [benzyl alcohol] | 100 | – | – |
| OCCCCO [butylene glycol] | – | effectively prevent malodor | suppression of the malodor, judged by panel [1]: did not suppress the malodor |
| CCOC(=O)C(O)C(O)C(=O)OCC (centres unmarked) [diethyl tartrate] | 100 | effectively prevent malodor | – |
| CCO [ethanol] | – | – | suppression of the malodor, judged by panel [1]: did not suppress the malodor |
| CCOCCOCCO [ethoxydiglycol] | 100 | effectively prevent malodor | – |
| CCOC(=O)[C@@H]1CCCN1C(C)=O [ethyl N-acetyl-prolinate] | 100 | effectively prevent malodor | – |
| CCOC(=O)CO [ethyl glycolate] | 100 | effectively prevent malodor | – |
| CCOC(=O)[C@H](C)O [ethyl-L-lactate] | 100 | – | – |
| CC(C)O [isopropyl alcohol] | 100 | effectively prevent malodor | – |
| CCCO [n-propanol] | 100 | effectively prevent malodor | – |
| CCCOC(=O)[C@@H]1CCCN1C(C)=O [propyl N-acetyl-prolinate] | 100 | effectively prevent malodor | – |
| CC(O)CO (centres unmarked) [propylene glycol] | – | – | suppression of the malodor, judged by panel [1]: did not suppress the malodor |
| CCOC(=O)CC(O)(CC(=O)OCC)C(=O)OCC [triethyl citrate] | 100 | effectively prevent malodor | – |
| CCCOC(=O)CC(O)(CC(=O)OCCC)C(=O)OCCC [tripropyl citrate] | 100 | effectively prevent malodor | – |
| O [water] | – | – | suppression of the malodor, judged by panel [1]: did not suppress the malodor |
